What is called microsomal CLint is the capacity of the preparation to metabolise the compound, expressed as a volume cleared per time. A higher microsomal CLint goes with rapid turnover. The term solubility denotes the dissolved amount per volume that the medium holds.

The values below come from US20240101549A1, “N-(2-(4-CYANOTHIAZOLIDIN-3-YL)-2-OXOETHYL)-QUINOLINE-4-CARBOXAMIDES” (AstraZeneca AB, priority 2020, published 2024).

In brackets after ≈: the same amount, converted by molar mass.

Series [1] can be described thus: Metabolic stability in human liver microsomes (HLM). Type of series: in vitro ADME. Conditions: n = 1 or average of n = 2-3. Background: Liver microsomes are vesicles of endoplasmic reticulum, rich in cytochrome P450 enzymes.
Method: Metabolic stability in HLM was measured as described in J Comput Aided Mol Des 2015, 29, 795.
The test system of series [2] is Rat Hepatocytes (rHep). Briefly: Metabolic stability in rat hepatocytes (rHep). Conditions: n = 1 or geometric mean of n = 2-3. In kind it is in vitro ADME.
Series [3] is described as follows: Caco-2 cell permeability. Conditions: human, Caco-2, AB intrinsic; n = 1 or average of n = 2-4; read-out: Caco2 AB Intrinsic Papp. In kind it is in vitro ADME. Background: Caco-2 cells form a polarised layer with tight junctions and transporters.
Method: Caco-2 cell permeability was measured as described in Mol Pharm 2017, 14, 1601.
Series [4] is described as follows: Kinetic solubility. In kind it is physicochemical. As to conditions: kinetic from dmso stock.
Method: Kinetic solubility was measured as described in Comput Aided Mol Des 2015, 29, 795.

In series [1], `CC1CCN(c2ccc3nccc(C(=O)NCC(=O)N4CSC[C@H]4C#N)c3c2)C1=O` (single isomer, unassigned) [Example 201, N-(2-((R)-4-Cyanothiazolidin-3-yl)-2-oxoethyl)-6-((R*)-3-methyl-2-oxopyrrolidin-1-yl)quinoline-4-carboxamide] returned a microsomal CLint of less than 3 µL/min/mg. Moreover, the “rHep CLint” value in series [2] is recorded as less than 1 μL/min/1E6. For the same compound, the Papp A→B in series [3] turned out to be 4.8 ×10⁻⁶ cm/s. For the same compound, the concentration in solution in series [4] (solubility) was 90 µM (≈ 38.1 µg/mL).
